Reference: the NIST ThermoML archive (doi:10.1016/j.jct.2009.06.016)
Numbers after ± are expanded uncertainties.

Tests used:
[1] = 101 kPa, Liquid, Vibrating tube method
[2] = xn = mol fraction of the nth substance listed; details: 283.15 K; 101 kPa; Liquid; Vibrating tube method; x2 = 0

| mass density ([1]; 283.15 K) [kg/m3] | mass density ([1]; 288.15 K) [kg/m3] | mass density ([1]; 293.15 K) [kg/m3] | mass density ([1]; 298.15 K) [kg/m3] | mass density ([1]; 303.15 K) [kg/m3] | mass density [2] [kg/m3] | Compound |
| --- | --- | --- | --- | --- | --- | --- |
| 894.462 ± 0.23 | 889.963 ± 0.23 | 885.456 ± 0.23 | 880.837 ± 0.23 | 876.279 ± 0.23 | – | CCCOCC(C)O (configuration not stated) [1-propoxy-2-propanol] |
| 999.699 ± 0.05 | – | – | – | – | – | O [water] |
| – | – | – | – | – | 999.699 ± 0.05 | O [water] + CCCOCC(C)O |
